For 16 compounds, mortality results are on record in ChEMBL document CHEMBL3045262, “Synthesis and Insecticidal Activity of Novel 1-Benzoyl-3-phenylurea Derivatives with Polyfluoroethylsulfenyl, -sulfonyl, and-sulfinyl Substituents” (1992).

Format in all cases: functional
Assay [1] relates to Spodoptera litura. Description: Larvicidal activity against third-instar larvae of Spodoptera litura infested in soybean seedling assessed as mortality at 2 ppm sprayed 1 day prior to infestation measured after 5 days.
Assay [2] deals with Adoxophyes orana. Description: Larvicidal activity against second-instar larvae of Adoxophyes orana infested soybean seedling assessed as mortality at 20 ppm measured after 7 days. The note with it: 168 h.
For assay [3], the system named is Plutella xylostella. Description: Larvicidal activity against second-instar larvae of Plutella xylostella (diamondback moth) infested raddish seedling assessed as mortality at 3.3 ppm sprayed 2 hr prior to infestation measured after 4 days.
Assay [4] has as its system Spodoptera litura. Nature of the assay: Larvicidal activity against third-instar larvae of Spodoptera litura infested in soybean seedling assessed as mortality at 2 ppm sprayed 6 days prior to infestation measured after 5 days.
Assay [5] deals with Plutella xylostella. Description: Larvicidal activity against second-instar larvae of Plutella xylostella (diamondback moth) infested raddish seedling assessed as mortality at 50 ppm sprayed 2 hr prior to infestation measured after 4 days.
Assay [6] relates to Adoxophyes orana. Nature of the assay: Larvicidal activity against second-instar larvae of Adoxophyes orana infested soybean seedling assessed as mortality at 5 ppm measured after 7 days. The note with it: 168 h.

SMILES strings stand for the structures.

For orientation: mortality means the share of the test organisms that died. As to `O=C(NC(=O)c1c(F)cccc1F)Nc1ccc(SC(F)(F)C(F)F)c(Cl)c1`, the mortality at 2 ppm in the assay with Spodoptera litura [1] and in the assay on Spodoptera litura [4] was 100% in each case. Moreover, the mortality at 20 ppm in the assay on Adoxophyes orana [2] is 65%. Moreover, the mortality at 3.3 ppm in the assay on Plutella xylostella [3] was determined as 100%.

Regarding `O=C(NC(=O)c1c(F)cccc1F)Nc1ccc(Cl)cc1` [DIFLUBENZURON], the mortality at 2 ppm is 20% in the assay on Spodoptera litura [1] and 15% in the assay with Spodoptera litura [4]. Moreover, the mortality at 20 ppm with Adoxophyes orana [2] turned out to be 20%. Also, the mortality at 50 ppm with Plutella xylostella [5] came to 20%.

`O=C(NC(=O)c1c(F)cccc1F)Nc1ccc(SC(F)(F)C(F)F)cc1Br`: the mortality at 2 ppm in the assay on Spodoptera litura [1] and in the assay on Spodoptera litura [4] was 100% throughout. In the assay with Plutella xylostella [3], the mortality at 3.3 ppm worked out at 100%. Further, in the assay on Adoxophyes orana [6], the mortality at 5 ppm came to 100%.

For the compound `Cc1c(NC(=O)NC(=O)c2c(F)cccc2F)ccc(SC(F)(F)C(F)F)c1C`, the mortality at 2 ppm in the assay on Spodoptera litura [1] and in the assay with Spodoptera litura [4] was 100% each time. For the same compound, the mortality at 3.3 ppm in the assay on Plutella xylostella [3] was found to be 100%. In addition, in the assay on Adoxophyes orana [6], the mortality at 5 ppm came to 100%.

With `O=C(NC(=O)c1c(F)cccc1F)Nc1ccc(S(=O)(=O)C(F)(F)C(F)F)c(Cl)c1Cl`, the mortality at 2 ppm in the assay with Spodoptera litura [1] and in the assay with Spodoptera litura [4] was 100% throughout. Also, the mortality at 3.3 ppm with Plutella xylostella [3] came to 95%. The mortality at 5 ppm with Adoxophyes orana [6] was determined as 100%.

For `O=C(NC(=O)c1c(F)cccc1F)Nc1ccc(S(=O)(=O)C(F)(F)C(F)Br)cc1Br` (centres undefined), the mortality at 2 ppm in the assay with Spodoptera litura [1] came out at 100%; in the assay with Spodoptera litura [4], 95%. The mortality at 3.3 ppm in the assay with Plutella xylostella [3] came to 20%. For the same compound, the mortality at 5 ppm in the assay with Adoxophyes orana [6] was 85%.

Consider `O=C(NC(=O)c1c(F)cccc1F)Nc1ccc(SC(F)(F)C(F)Cl)c(Cl)c1Cl` (centres undefined), for which the mortality at 2 ppm with Spodoptera litura [1] and with Spodoptera litura [4] was 100% each time. Moreover, the mortality at 3.3 ppm with Plutella xylostella [3] is 95%. In addition, in the assay on Adoxophyes orana [6], the mortality at 5 ppm was found to be 100%.

For the compound `Cc1cc(S(=O)(=O)C(F)(F)C(F)Cl)c(C)cc1NC(=O)NC(=O)c1c(F)cccc1F` (centres undefined), the mortality at 2 ppm with Spodoptera litura [1] and in the assay on Spodoptera litura [4] was 100% each time. In addition, the mortality at 3.3 ppm with Plutella xylostella [3] stood at 100%. For the same compound, the mortality at 5 ppm in the assay on Adoxophyes orana [6] stood at 100%.

For the compound `Cc1c(NC(=O)NC(=O)c2c(F)cccc2F)ccc([S+]([O-])C(F)(F)C(F)F)c1C` (centres undefined), the mortality at 2 ppm in the assay on Spodoptera litura [1] and in the assay with Spodoptera litura [4] was 100% throughout. In addition, the mortality at 3.3 ppm in the assay on Plutella xylostella [3] worked out at 100%. Further, in the assay with Adoxophyes orana [6], the mortality at 5 ppm was found to be 90%.

For `O=C(NC(=O)c1c(F)cccc1F)Nc1ccc([S+]([O-])C(F)(F)C(F)F)cc1F` (centres undefined), the mortality at 2 ppm was 100% with Spodoptera litura [1] and 95% with Spodoptera litura [4]. For the same compound, the mortality at 3.3 ppm in the assay with Plutella xylostella [3] is 100%. The mortality at 5 ppm in the assay on Adoxophyes orana [6] worked out at 100%.

Turning to `O=C(NC(=O)c1c(F)cccc1F)Nc1ccc(SC(F)(F)C(F)Cl)cc1F` (centres undefined), the mortality at 2 ppm in the assay on Spodoptera litura [1] and in the assay on Spodoptera litura [4] was 100% each time. Moreover, the mortality at 3.3 ppm in the assay with Plutella xylostella [3] came to 100%. In addition, in the assay on Adoxophyes orana [6], the mortality at 5 ppm was 100%.

Take `O=C(NC(=O)c1c(F)cccc1F)Nc1cc(Cl)c([S+]([O-])C(F)(F)C(F)F)cc1Cl` (centres undefined): the mortality at 2 ppm with Spodoptera litura [1] and with Spodoptera litura [4] was 100% in each case. The mortality at 3.3 ppm in the assay with Plutella xylostella [3] was 100%. Besides, the mortality at 5 ppm in the assay with Adoxophyes orana [6] came out at 75%.

Turning to `O=C(NC(=O)c1c(F)cccc1F)Nc1ccc([S+]([O-])C(F)(F)C(F)Cl)cc1Cl` (centres undefined), the values for the mortality at 2 ppm with Spodoptera litura [1] and in the assay on Spodoptera litura [4] were 100% and 90%, respectively. The mortality at 3.3 ppm in the assay on Plutella xylostella [3] came out at 95%. Also, in the assay on Adoxophyes orana [6], the mortality at 5 ppm was 95%.

`Cc1cc([S+]([O-])C(F)(F)C(F)Cl)ccc1NC(=O)NC(=O)c1c(F)cccc1F` (centres undefined): the mortality at 2 ppm in the assay with Spodoptera litura [1] and in the assay with Spodoptera litura [4] was 100% throughout. The mortality at 3.3 ppm in the assay on Plutella xylostella [3] was 100%. For the same compound, the mortality at 5 ppm in the assay with Adoxophyes orana [6] is 100%.

In the case of `O=C(NC(=O)c1c(F)cccc1F)Nc1ccc(SC(F)(F)C(F)F)cc1F`, the mortality at 2 ppm in the assay with Spodoptera litura [1] and with Spodoptera litura [4] was 100% in each case. For the same compound, the mortality at 3.3 ppm with Plutella xylostella [3] worked out at 100%. The mortality at 5 ppm in the assay on Adoxophyes orana [6] was 80%.

As for `O=C(NC(=O)c1c(F)cccc1F)Nc1ccc([S+]([O-])C(F)(F)C(F)Cl)cc1F` (centres undefined), the mortality at 2 ppm in the assay on Spodoptera litura [1] and with Spodoptera litura [4] was 100% throughout. In addition, the mortality at 3.3 ppm with Plutella xylostella [3] worked out at 100%. Further, the mortality at 5 ppm with Adoxophyes orana [6] came out at 100%.
